# According to PubChem BioAssay AID1645848:
# Settings: buffer; pH 7.4; 6.0 h; 150.0 µM
row,Compound,solubility kinetic [µg/mL]
1,O=C(Nc1nc(-c2ccccc2)cs1)c1ccncc1NS(=O)(=O)c1ccc(F)cc1Cl,< 1
2,COc1ccc(C2c3c(ncn(CCN4CCOCC4)c3=N)Oc3ccc4ccccc4c32)cc1OC (stereo not given),4.21
3,CCc1ccccc1OC[C@@H](O)CN[C@H]1CCCc2ccccc21,36
4,CN(C)c1cccc(-c2ncc(F)c(N3CCC(C(N)=O)CC3)n2)c1,> 51
5,CCn1c(SCc2ccc(C#N)cc2)nnc1-c1cccc(Cl)c1,34.2
6,O=C(Nc1ccc(Cl)cc1)C(NS(=O)(=O)c1cccs1)c1ccccc1 (stereo not given),< 1
7,O=C(Nc1ccc(N2CCC(N3CCCCC3)CC2)c(C(=O)O)c1)c1ccc(Br)cc1,34
8,NC(=O)C1CCN(c2ncc(-c3ccc4c(c3)OCO4)s2)CC1,5.31
9,O=C(NCCCNc1nc(Nc2cccc(NC(=O)N3CCCC3)c2)ncc1I)c1cccs1,14.2
10,Cc1cccc(-c2noc([C@@H]3Cc4nc[nH]c4CN3C(=O)CC(C)(C)CC(=O)O)n2)c1,> 63
11,COCCNC(=O)[C@H]1C[C@H](Oc2ccccc2)CN1Cc1ccc2[nH]ccc2c1,17.1
12,Cc1ccc(-c2cc(C(=O)Nc3ccc(-c4noc(=O)[nH]4)cc3)c3ccccc3n2)cc1C,1.39
13,CC(C)(C)C1CCc2[nH]c3ccccc3c(=O)c2C1 (stereo not given),1.88
14,Cc1ccc(-c2ccc(CNc3nc(-c4ccccc4C(C)C)ncc3C)cc2)cn1,< 1
15,O=c1n(-c2ccc(Cl)cc2)nc2n1CCN(Cc1ccc(C(F)(F)F)cc1)C2,< 1
16,Clc1ccccc1-c1nnc2sc(-c3ccc4c(c3)OCO4)nn12,< 1
17,Cc1cnc(-c2ccccc2C(C)C)nc1NCC1CCN(c2cccnc2)CC1,< 1
18,COc1ccccc1NC(=O)c1oc2ccccc2c1NC(=O)Cc1cccs1,< 1
19,CCOc1ccc(CCNC(=O)c2ccc3ccccc3n2)cc1OCC,8.84
20,Cc1noc(C)c1-c1cc(-c2ccc3c(c2)C(=O)NC3)cn2cncc12,> 76
21,CCO.Nc1nc(N)c2cc(Sc3ccc4ccccc4c3)ccc2n1,< 1
22,NC(=O)C1CCN(c2nc(-c3ccccc3F)cs2)CC1,4.65
23,CC(C)(C)C(O)C(Oc1ccc(Cl)cc1)n1cncn1 (stereo not given),> 44
24,Cc1cc(C)nc(NC(=S)N2CCN(c3nccc(C(F)(F)F)n3)CC2)c1,7.21

row,Compound,solubility kinetic [µg/mL]
1,Cc1ccc(-c2nn(C(C)(C)C)c3ncnc(N)c23)cc1,2.5
2,Cc1ccc(S(=O)(=O)Nc2cc(Cl)cc(C(=O)Nc3nc(-c4ccccc4)cs3)c2)cc1,< 1
3,COc1ccc(-n2nc(C3CCN(C(=O)C4CC4)CC3)[nH]c2=O)cc1,> 51
4,O=C(/C=C/c1cccnc1)NCCCCC1CCN(C(=O)c2ccccc2)CC1,> 58
5,CCOc1ccc(CCNC(=O)c2ccc(C3(C(F)(F)F)N=N3)cc2)cc1OCC,< 1
6,COc1cc(C2CC(=O)Nc3cc4c(cc32)OCCO4)cc(Br)c1OC (stereo not given),< 1
7,O=C(c1cc2ccccc2[nH]1)N1CCc2c(n(Cc3cccnc3)n(CCc3ccccc3)c2=O)C1,> 47
8,O=C1Nc2ccc(I)cc2/C1=C/c1cc(Br)c(O)c(Br)c1,< 1
9,C=C1[C@@H](C)C2[C@H](Cc3ccccc3)NC(=O)[C@@]23C(/C=C/C[C@H](C)C[C@@](C)(O)/C=C/[C@@H]3OC(C)=O)[C@@H]1O (stereo not given in full),1.9
10,CN(C)c1cccc(-c2nnc(N3CCC(C(N)=O)CC3)s2)c1,> 49
11,CS(=O)(=O)Nc1cccc(-c2nccc(-n3ccnc3)n2)c1,> 47
12,CC(=O)c1c(C)[nH]c(C(=O)Nc2ccc(C)c(S(=O)(=O)N3CCCCCC3)c2)c1C,1.05
13,COc1cc(-c2cn(C)c(=O)c3cnccc23)c(OC)cc1CN(C)C,> 52
14,O=S(=O)(Nc1ccc(C2CCNCC2)cc1)c1ccc(NCc2cccc(Cl)c2O)cc1,47.2
15,O=C1CCCC2=C1C1(CCCC1)N=C(Nc1nc3ccccc3o1)N2,< 1
16,COc1ccc2c(c1)/C(=C/c1cnc[nH]1)C(=O)N2,> 36
17,CC[C@H]1NC(=O)[C@@H](NC(=O)c2ncccc2O)[C@@H](C)OC(=O)[C@H](c2ccccc2)NC(=O)[C@@H]2CC(=O)CCN2C(=O)[C@H](Cc2ccccc2)N(C)C(=O)[C@@H]2CCCN2C1=O,> 100
18,NC(=O)C1CCN(c2cc(-c3ccc4c(c3)OCCCO4)ncn2)CC1,> 52
19,CCC(=O)NC(c1ccc(OC)cc1)c1cc(Cl)c2cccnc2c1O (stereo not given),< 1
20,CCOc1ccc(CCNC(=O)c2cc3sccc3n2CCN2CCOCC2)cc1OCC,52.4
21,Cc1cc(NS(=O)(=O)c2ccc(NC(=O)Cc3ccc(Cl)c(Cl)c3)cc2)n(C)n1,> 67
22,O=C(O)c1cn(C2CC2)c2cc(N3C[C@@H]4C[C@H]3CN4)c(F)cc2c1=O,> 51
23,Cc1cc(-c2nnc3n2CCCCC3)c(C)n1-c1cccc2ccccc12,15.6
24,CCN(CC)C(=O)c1coc(COc2ccc3c(c2)C(c2cccc(F)c2)N(C(=O)C(C)C)CC3)n1 (stereo not given),< 1

row,Compound,solubility kinetic [µg/mL]
1,O=C(c1ccc2c(c1)ncn2-c1ccccc1)N1CCCCC1,> 45
2,Cc1cc(N2CCN(c3ccccc3)CC2)nc(-n2nc(C)cc2C)n1,40
3,Cc1cnc(-c2ccccc2C(F)F)nc1NCc1ccc(-n2ccnn2)cc1,< 1
4,O=[S+]([O-])(Nc1nccs1)c1ccc(NCc2ccc(Cl)c(Cl)c2)cc1,< 1
5,FC(F)(F)Oc1cccc(Nc2nc(-c3ccncc3)nc3ccccc23)c1,< 1
6,Cc1ccc(-c2cc(C(=O)Nc3ccc(S(=O)(=O)NCc4nccs4)cc3)c3ccccc3n2)cc1C,1.66
7,COc1ccc(-c2ccc3nc(-c4cc(F)cc(F)c4F)oc3c2)c(OC)c1OC,< 1
8,O=c1[nH]nc(Sc2ncc([N+](=O)[O-])s2)n1-c1ccc2c(c1)OCCO2,28.7
9,O=C(Nc1nc(-c2ccccc2)cs1)c1ccccc1[N+](=O)[O-],< 1
10,CCOc1ccccc1C(=O)Nc1ccccc1C(=O)Nc1cccc(C(F)(F)F)c1,< 1
11,CNc1ccc(Br)cc(C(=O)/C=C/c2ccc(OC)cc2OC)c1=O,1.94
12,Nc1c(C(=O)N2CCCCC2)sc(=S)n1-c1ccccc1,9.32
13,Cc1ccc2c(c1)/C(=C\c1cc(Cl)c(O)c(Cl)c1)C(=O)N2,15.4
14,NC1CCC(Nc2nc(Nc3ccc(C(=O)N4CCCCC4)cc3)c3ncn(-c4cccc(F)c4)c3n2)CC1 (stereo not given),57.5
15,O=C(Nc1ncc(Cc2cccc(C(F)(F)F)c2)s1)c1ccc(-c2cccc([N+](=O)[O-])c2)o1,< 1
16,CN(C(=O)CSc1nc2ccc(NC(=O)c3ccc(F)cc3)cc2s1)c1ccccc1,< 1
17,COc1ccc(Cl)cc1NC(=O)c1sc2nc3c(cc2c1N)N1CCC3CC1,< 1
18,O=S(=O)(c1ccccc1)N1CCCCC1CCc1ccccc1 (stereo not given),4.39
19,Cc1nn(CCc2nc(-c3ccccc3)cs2)c2[nH]c(=O)cc(C(F)(F)F)c12,1.26
20,COc1c2c(c3c(c1CCC(=O)O)OC(C)(C)C=C3)OC(C)(C)C=C2,> 51
21,CCCCCCC.CN1C(=O)CN=C(c2ccc[nH]2)c2cc(Cl)ccc21,> 40
22,COC(=O)c1cccc(NC(=O)c2cnc(-c3ccc(F)cc3)nc2-c2ccncc2)c1,< 1
